Test results taken from ChEMBL document CHEMBL1681714, “Organelle-selective energy transfer: a fluorescent indicator of intracellular environment” (Bioorg Med Chem Lett, 2011).

Columns and labels:
Details in all cases: 0.5 h
[1] = Drug uptake in rat Clone 9 cells assessed as accumulation in endoplasmic reticulum after 30 mins by fluorescence microscopy; format: ADME, cell-based
[2] = Drug uptake in rat Clone 9 cells assessed as localization to endoplasmic reticulum after 30 mins by fluorescence microscopy; format: ADME, cell-based
[3] = Drug uptake in rat Clone 9 cells assessed as accumulation in lysosomes after 30 mins by fluorescence microscopy; format: ADME, cell-based
[4] = Drug uptake in rat Clone 9 cells assessed as accumulation in mitochondria after 30 mins by fluorescence microscopy; format: ADME
[5] = Drug uptake in rat Clone 9 cells assessed as accumulation in cytoplasm after 30 mins by fluorescence microscopy; format: ADME, cell-based

Measured: Drug uptake

COc1ccccc1C1=[N+]2C(=C(c3ccc(C#Cc4ccc(C5=[N+]6C(=Cc7c(C)c(S(=O)(=O)[O-])c(C)n7[B-]6(F)F)C(=O)N5C)cc4)cc3OCC(=O)O)c3ccc(-c4ccccc4OC)n3[B-]2(F)F)C=C1.[Na+]
Active: [1] | [2] | [3]

COc1cc(C#Cc2ccc3c(c2)C(C)(C)C(/C=C/C=C2/N(CCCCCC(=O)O)c4ccccc4C2(C)C)=[N+]3C)ccc1C1=C2C(C)=CC(C)=[N+]2[B-](F)(F)n2c(C)cc(C)c21.[I-]
not listed: [1]
Active: all other assays above
